Our source for the Km values is paper PMC5056344, “Highly Efficient and Stable Novel NanoBiohybrid Catalyst to Avert 3,4-Dihydroxybenzoic Acid Pollutant in Water” (Scientific Reports, 2016).

The subject of the experiment is T1, protocatechuate 3,4-dioxygenase (3,4-POD).
T1 construct: gene pcaG; 700 kDa; (alpha-beta)n, n = 2-12, non-heme Fe(III); free enzyme
Description: disappearance of […],4-DHBA at […] nm; non-linear Michaelis-Menten fit. The experiment is classed as biochemical, Pseudomonas sp. To be noted: free enzyme; 50 mM CHES, pH 9.0, 55 °C; 3,4-DHBA 1–200 μM.

By Km is commonly meant the substrate concentration at which the rate is half of its maximum. For `O=C(O)c1ccc(O)c(O)c1` [3,4-dihydroxybenzoic acid], the Michaelis-Menten constant (Km) is 37 ± 15 µM.
